Experimental data: patent publication US4001218A, “Penicillins” (Bayer Aktiengesellschaft, priority 1972, dated 1977)

Legend:
[1] = system: Enterococcus 9790; test: MIC, test tube series dilution test, Enterococcus 9790; type: cell-based; details: 24 hours, 37°C
[2] = system: Klebsiella 63; test: MIC, test tube series dilution test, Klebsiella 63; type: cell-based; details: Klebsiella 63; 24 hours, 37°C
[3] = system: Psdm. aerug. Walter; test: MIC, test tube series dilution test, Psdm. aerug. Walter; type: cell-based, Pseudomonas aeruginosa; details: Psdm. aerug. Walter; 24 hours, 37°C
[4] = system: E. coli 14; type: cell-based; details: E. coli 14; 24 hours, 37°C
[5] = system: E. coli A 261; test: MIC, test tube series dilution test, E. coli A 261; type: cell-based; details: 24 hours, 37°C
[6] = system: Proteus vulg. 1017; type: cell-based, Proteus vulgaris; details: Proteus 1017; 24 hours, 37°C
[7] = system: Proteus morg. 932; test: MIC, test tube series dilution test, Proteus morg. 932; type: cell-based; details: 24 hours, 37°C
[8] = system: Staph. aureus 1756; test: MIC, test tube series dilution test, Staph. aureus 1756; type: cell-based, Staphylococcus aureus; details: Staph. aureus 1756; 24 hours, 37°C
[9] = system: Psdm. aerug. F 41; test: MIC, test tube series dilution test, Psdm. aerug. F 41; type: cell-based, Pseudomonas aeruginosa; details: Psdm. aerug. F 41; 24 hours, 37°C
[10] = system: E. coli C 165; test: MIC, test tube series dilution test, E. coli C 165; type: cell-based; details: 24 hours, 37°C
[11] = system: Staph. aureus 133; type: cell-based, Staphylococcus aureus; details: Staph. aureus 133; 24 hours, 37°C
[12] = system: E. coli 183/58; test: MIC, test tube series dilution test, E. coli 183/58; type: cell-based; details: 24 hours, 37°C
[13] = system: Klebsiella K 10; test: MIC, test tube series dilution test, Klebsiella K 10; type: cell-based; details: 24 hours, 37°C

Row | SMILES | MIC [1] | MIC [2] | MIC [3] | MIC [4] | MIC [5] [U/ml] | MIC [6] | MIC [7] [U/ml] | MIC [8] | MIC [9] | MIC [10] | MIC [11] [U/ml] | MIC [12] | MIC [13]
1 | CC1(C)S[C@@H]2[C@H](NC(=O)[C@H](NC(=O)c3ccc(NC(=O)c4ccc(F)cc4)cc3)c3ccccc3)C(=O)N2[C@H]1C(=O)O [Example 17] | 16 U/ml | 32 U/ml | 32 U/ml | 4 U/ml | > 256 | ~ 32 U/ml | 128 | 32 U/ml | 32 U/ml | ~ 8 U/ml | < 1 | 8 U/ml | 64 U/ml
2 | COc1cc(OC)cc(C(=O)Nc2ccc(C(=O)N[C@@H](C(=O)N[C@@H]3C(=O)N4[C@@H]3SC(C)(C)[C@@H]4C(=O)O)c3ccccc3)cc2)c1 [Example 18] | 8 U/ml | 64 U/ml | 16 U/ml | 4 U/ml | > 256 | 64 U/ml | 128 | 16 U/ml | 16 U/ml | 8 U/ml | < 1 | 8 U/ml | 64 U/ml
3 | CC1(C)S[C@@H]2[C@H](NC(=O)[C@H](NC(=O)c3ccc(NC(=O)c4ccccc4)cc3)c3ccccc3)C(=O)N2[C@H]1C(=O)O [Example 25] | 8 U/ml | 32 U/ml | 32 U/ml | 8 U/ml | > 256 | 128 U/ml | 16 | 64 U/ml | 16 U/ml | 16 U/ml | < 1 | 8 U/ml | 64 U/ml
4 | CC1(C)S[C@@H]2[C@H](NC(=O)[C@H](NC(=O)c3ccc(NC(=O)c4ccc(N=[N+]=[N-])cc4)cc3)c3ccccc3)C(=O)N2[C@H]1C(=O)O [Example 26] | 16 U/ml | 4 U/ml | 16 U/ml | < 1 U/ml | 256 | 16 U/ml | 8 | 64 U/ml | 16 U/ml | 4 U/ml | < 1 | < 1 U/ml | 16 U/ml
5 | CC1(C)S[C@@H]2[C@H](NC(=O)[C@H](NC(=O)c3ccc(NC(=O)c4ccc([N+](=O)[O-])cc4)cc3)c3ccccc3)C(=O)N2[C@H]1C(=O)O [Example 28, sodium D(-)-α-[4-(4-nitrobenzoylamino)-benzoylamino]-benzylpenicillin] | 4 U/ml | 16 U/ml | 16 U/ml | < 1 U/ml | > 256 | 16 U/ml | 128 | ~ 32 U/ml | 16 U/ml | 4 U/ml | < 1 | 4 U/ml | 16 U/ml
6 | CC1(C)S[C@@H]2[C@H](NC(=O)[C@H](NC(=O)c3ccc([N+](=O)[O-])cc3)c3ccccc3)C(=O)N2[C@H]1C(=O)O [Example 33, sodium D(-)-α-(4-nitro-benzoylamino)-benzylpenicillin] | 4 U/ml | 128 U/ml | – | ~ 8 U/ml | > 256 | 64 U/ml | 256 | 32 U/ml | 64 U/ml | ~ 32 U/ml | < 1 | 32 U/ml | 128 U/ml
7 | CC1(C)S[C@@H]2[C@H](NC(=O)[C@H](NC(=O)c3ccc(NC(=O)CN=[N+]=[N-])cc3)c3ccccc3)C(=O)N2[C@H]1C(=O)O [Example 36] | 8 U/ml | 64 U/ml | ~ 64 U/ml | 8 U/ml | > 256 | 128 U/ml | – | 64 U/ml | 32 U/ml | ~ 16 U/ml | < 1 | 32 U/ml | 128 U/ml
8 | CC1(C)S[C@@H]2[C@H](NC(=O)[C@H](NC(=O)c3cc(NC(=O)C4CCC4)ccc3Cl)c3ccccc3)C(=O)N2[C@H]1C(=O)O [Example 52] | 32-64 U/ml | 128-256 U/ml | 128-256 U/ml | – | – | > 256 U/ml | – | 32-64 U/ml | 128-256 U/ml | 128-256 U/ml | < 1 | 32-64 U/ml | 128-256 U/ml
